Key:
[1] = biological target: T1, NAD-dependent protein deacetylase (Schistosoma mansoni) (UniProt T1VXA1); assay: Inhibition of recombinant Schistosoma mansoni sirtuin 2 (21 to 322 residues) expressed in Escherichia coli BL21(DE3) cells assessed as inhibition of substrate demyristoylation at 20 uM using (Z)-(Myr)-Lys-AMC as substrate relative to control
T1 sequence (whole entry): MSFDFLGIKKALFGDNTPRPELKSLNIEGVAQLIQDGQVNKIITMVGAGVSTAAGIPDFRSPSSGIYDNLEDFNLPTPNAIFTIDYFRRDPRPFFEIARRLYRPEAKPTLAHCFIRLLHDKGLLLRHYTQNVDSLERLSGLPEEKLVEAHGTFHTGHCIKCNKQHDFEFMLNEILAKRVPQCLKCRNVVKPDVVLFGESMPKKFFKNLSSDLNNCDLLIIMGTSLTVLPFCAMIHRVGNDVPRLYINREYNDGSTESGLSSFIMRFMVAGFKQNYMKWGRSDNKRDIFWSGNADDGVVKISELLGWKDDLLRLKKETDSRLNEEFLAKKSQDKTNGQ

[2] = biological target: T2, NAD-dependent protein deacetylase sirtuin-2 (Homo sapiens, UniProt Q8IXJ6); assay: Inhibition of human sirutin 2 assessed as inhibition of susbtrate demyristoylation at 20 uM using (Z)-(Myr)-Lys-AMC as substrate relative to control
T2 sequence (Q8IXJ6 whole entry): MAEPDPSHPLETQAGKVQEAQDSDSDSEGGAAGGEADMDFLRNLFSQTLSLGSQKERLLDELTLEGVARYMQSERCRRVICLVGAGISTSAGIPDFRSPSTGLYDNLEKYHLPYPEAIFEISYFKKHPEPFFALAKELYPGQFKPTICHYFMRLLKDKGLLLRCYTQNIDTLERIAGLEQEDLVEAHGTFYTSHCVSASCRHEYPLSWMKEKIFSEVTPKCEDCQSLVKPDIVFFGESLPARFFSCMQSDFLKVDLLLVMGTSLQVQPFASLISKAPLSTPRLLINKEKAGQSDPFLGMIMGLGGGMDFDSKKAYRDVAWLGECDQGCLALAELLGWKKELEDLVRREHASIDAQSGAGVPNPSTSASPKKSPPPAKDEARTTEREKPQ

[3] = biological target: T2, NAD-dependent protein deacetylase sirtuin-2; assay: Inhibition of human sirtuin 2 assessed as inhibition of substrate deacetylation using ZMAL as substrate
[4] = biological target: T1, NAD-dependent protein deacetylase (Schistosoma mansoni); assay: Inhibition of recombinant Schistosoma mansoni sirtuin 2 (21 to 322 residues) expressed in Escherichia coli BL21(DE3) cells assessed as inhibition of substrate deacetylation at 20 uM using ZMAL as substrate relative to control
[5] = biological target: T3, NAD-dependent protein deacetylase (Schistosoma mansoni, UniProt T1VXA1); assay: Ratio of Kcat for recombinant Schistosoma mansoni sirtuin 2 (21 to 322 residues) expressed in Escherichia coli BL21(DE3) cells in presence of PSDKmyr to Kcat for recombinant Schistosoma mansoni sirtuin 2 (21 to 322 residues) expressed in Escherichia coli BL21(DE3) cells in presence of PSDKac; assay type: ADME
T3 sequence (T1VXA1 whole entry): T1 sequence (whole entry)

[6] = biological target: T3, NAD-dependent protein deacetylase; assay: Substrate activity at recombinant Schistosoma mansoni sirtuin 2 (21 to 322 residues) expressed in Escherichia coli BL21(DE3) cells assessed as ratio of Kcat to Km up to 30 mins in presence of ZMAL at saturated concentration by homogeneous fluorescence based analysis; assay type: ADME; conditions: 0.5 h

Compound: O=C(NCc1cccnc1)c1ccc2c(c1)C1C3CCC(C3)C1C(c1ccccc1)N2 (stereo unspecified)
- inhibition [1]: < 15%
- inhibition at 20 µM [2]: 42.8%
- IC50 [3]: 2500 nM
- inhibition [4]: < 15%

Compound: NC(=O)c1ccc[n+]([C@H]2O[C@@H](COP(=O)([O-])OP(=O)(O)OC[C@H]3O[C@@H](n4cnc5c(N)ncnc54)[C@H](O)[C@@H]3O)[C@H](O)[C@@H]2O)c1
- Ratio [5]: 3
- Kcat/Km [6]: 9.4 ×10¹ /s/M

— ChEMBL document CHEMBL4321809, “Structure-Reactivity Relationships on Substrates and Inhibitors of the Lysine Deacylase Sirtuin 2 from Schistosoma mansoni (SmSirt2)” (J Med Chem, 2019)
